Laboratory results from publication PMC6277198, “Molecular basis for activation of lecithin:cholesterol acyltransferase by a compound that increases HDL cholesterol” (eLife, 2018).
Where a chain is given by its changes, count along the chain named. Read-outs that look alike come from different tables or passages of the source.

Assays:
∆N∆C-IDFP LCAT = biological target: T1, ∆N∆C-IDFP LCAT (Homo sapiens, UniProt P04180); assay: Differential scanning fluorimetry; assay type: binding
T1 construct: ∆N∆C-LCAT (residues 21–397), a truncation variant that lacks the dynamic N- and C-termini; made in house; host or cells: HEK293F
T1 sequence (P04180 45-421): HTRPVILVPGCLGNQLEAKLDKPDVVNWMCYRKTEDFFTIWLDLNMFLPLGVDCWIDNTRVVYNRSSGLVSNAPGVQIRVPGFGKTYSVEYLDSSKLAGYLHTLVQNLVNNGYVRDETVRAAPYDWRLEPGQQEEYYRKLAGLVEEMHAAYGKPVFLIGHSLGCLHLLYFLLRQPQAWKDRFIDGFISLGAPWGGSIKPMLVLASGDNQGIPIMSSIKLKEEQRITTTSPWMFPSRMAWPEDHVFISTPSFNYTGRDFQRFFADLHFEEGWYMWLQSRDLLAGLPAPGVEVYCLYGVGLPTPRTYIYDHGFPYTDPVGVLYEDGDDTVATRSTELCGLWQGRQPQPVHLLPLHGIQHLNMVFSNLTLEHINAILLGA
Method: (§1) Tm values were determined using an Applied Biosystems QuantStudio 7 Flex qPCR machine with two replicates performed at least in triplicate. LCAT at 0.05 mg mL^−1 was diluted into reaction buffer containing 5X Sypro Orange in a final volume of 10 μL in 384-well PCR plates. DMSO or compound 1 was added so that all reactions contained 3% DMSO. The reactions were run from 25–95 °C with a ramp rate of 0.03 °C s^−1. Tm values were determined as the derivative using Protein Thermal Shift software. Significance was determined using a one-way analysis of variance followed by Tukey’s multiple comparisons post-test in GraphPad Prism.

∆N∆C-LCAT = biological target: T2, ∆N∆C-LCAT (Homo sapiens, UniProt P04180); assay: Differential scanning fluorimetry; assay type: binding; settings: for Thermal stabilization (DSF): ∆N∆C LCAT
T2 construct: ∆N∆C-LCAT (residues 21–397), a truncation variant that lacks the dynamic N- and C-termini; made in house; host or cells: HEK293F
T2 sequence (P04180 45-421): T1 sequence (P04180 45-421)
Method: as §1

LCAT R244H = biological target: T3, LCAT R244H (Homo sapiens, UniProt P04180, R268H); assay: MUP hydrolysis (esterase) assay; assay type: biochemical
T3 construct: hydrolysis of 4-methylumbelliferyl palmitate (MUP) by full-length LCAT; made in house; host or cells: HEK293F (transient transfection, secreted)
T3 sequence (P04180 25-440 R268H): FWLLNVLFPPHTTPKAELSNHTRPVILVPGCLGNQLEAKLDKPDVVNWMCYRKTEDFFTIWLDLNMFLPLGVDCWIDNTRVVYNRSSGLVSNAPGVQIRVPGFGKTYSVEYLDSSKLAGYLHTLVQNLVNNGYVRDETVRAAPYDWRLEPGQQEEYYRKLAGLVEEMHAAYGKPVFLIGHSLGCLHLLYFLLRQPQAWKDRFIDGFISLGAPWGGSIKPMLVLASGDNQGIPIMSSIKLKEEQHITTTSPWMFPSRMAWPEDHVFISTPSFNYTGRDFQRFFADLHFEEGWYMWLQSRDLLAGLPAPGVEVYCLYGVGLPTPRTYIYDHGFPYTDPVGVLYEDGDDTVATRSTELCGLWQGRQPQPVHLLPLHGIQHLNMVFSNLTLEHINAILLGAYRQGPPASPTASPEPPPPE
Method: (§2) The lipase activity of LCAT was measured using MUP as a substrate. The assay was performed at room temperature in 0.1 M sodium phosphate buffer, pH 7.4 containing 0.01% Triton X-100. 4 μL of LCAT (6 nM final concentration) were dispensed into a 1536-well Greiner solid black plate. The same volume of assay buffer was dispensed into column 1 and 2 for a no-enzyme control. Then 23 nL DMSO or compounds titrated at 11-point 1:3 dilution series starting at 10 mM were transferred using a pintool. After 15 min incubation, 2 μL MUP (16 μM final concentration) was added to initiate the reaction. The hydrolysis of MUP was monitored using a ViewLux plate reader (excitation 380 nm/emission 450 nm) for 20 min. The fluorescence signal was normalized against no-activator and no-enzyme control after subtraction of background signal (t = 0 min). To plot percent activation, in each assay 100% was set at the rate of LCAT or LCAT variant without compound. The resulting data were fitted to a sigmoidal dose response curve.

LCAT R244A = biological target: T4, LCAT R244A (Homo sapiens, UniProt P04180, R268A); assay: MUP hydrolysis (esterase) assay; assay type: biochemical
T4 construct: hydrolysis of 4-methylumbelliferyl palmitate (MUP) by full-length LCAT; made in house; host or cells: HEK293F (transient transfection, secreted)
T4 sequence (P04180 25-440 R268A): T3 sequence (P04180 25-440 R268H) with H244A
Method: as §2

[1] = compound titrated from 0.04 to 9.5 μM
[2] = compound titrated from 0.04 to 9.5 μM, read-out: MUP assay EC50
[3] = read-out: EC50, MUP esterase assay

Row | SMILES | Thermal stabilization (DSF) (∆N∆C-IDFP LCAT) | ∆Tm of ∆N∆C-LCAT (∆N∆C-LCAT; compound 1 and IDFP combined, additive effect) | Thermal stabilization (DSF) (∆N∆C-LCAT) | Fold activation, MUP esterase assay (LCAT R244H; [1]) | EC50 (LCAT R244H; [2]) [nM] | EC50 (LCAT R244H; [3]) [nM] | Fold activation, MUP esterase assay (LCAT R244A; [1]) | EC50 (LCAT R244A; [2]) [nM] | EC50 (LCAT R244A; [3]) [nM] | MUP assay EC50 (LCAT R244H; [1]) | MUP assay EC50 (LCAT R244A; [1])
1 | N#Cc1cnc(N2CCC(c3n[nH]c4c3C(O)(C(F)(F)F)CC(=O)N4)CC2)cc1C(F)(F)F (stereo not drawn) [compound 1, 6-(4-(4-Hydroxy-6-oxo-4-(trifluoromethyl)−4,5,6,7-tetrahydro-1H-pyrazolo[3,4-b]pyridin-3-yl)piperidin-1-yl)−4-(trifluoromethyl)nicotinonitrile] | stabilize | 12.7 ˚C | stabilize | 1.6 ± 0.3 fold | 160 ± 30 | ~150 | 1.7 ± 0.4 fold | 130 ± 20 | ~150 | – | –
2 | O=C1CC(O)(C(F)(F)F)c2c(ncn2C2CCN(c3cnc(C(F)(F)F)cn3)CC2)N1 (stereo not drawn) [compound 3, 7-Hydroxy-7-(trifluoromethyl)−1-(1-(5-(trifluoromethyl)pyrazin-2-yl)piperidin-4-yl)−6,7-dihydro-1H-imidazo[4,5-b]pyridin-5(4H)-one] | stabilize | – | stabilize | 1.8 ± 0.1 fold | 470 ± 50 | – | 1.9 ± 0.2 fold | 400 ± 30 | – | – | –
3 | O=c1cc(C(F)(F)F)c2c(ncn2C2CCN(c3cnc(C(F)(F)F)cn3)CC2)[nH]1 [compound 8, 7-(trifluoromethyl)−1-(1-(5-(trifluoromethyl)pyrazin-2-yl)piperidin-4-yl)−1H-imidazo[4,5-b]pyridin-5(4H)-one] | – | – | – | 2.8 ± 0.6 fold | > 10000 | – | 3.2 ± 0.8 fold | > 10000 | – | – | –

More lines, now with the values ahead:

Row | Thermal stabilization (DSF) (∆N∆C-IDFP LCAT) | ∆Tm of ∆N∆C-LCAT (∆N∆C-LCAT; compound 1 and IDFP combined, additive effect) | Thermal stabilization (DSF) (∆N∆C-LCAT) | Fold activation, MUP esterase assay (LCAT R244H; [1]) | EC50 (LCAT R244H; [2]) [nM] | EC50 (LCAT R244H; [3]) [nM] | Fold activation, MUP esterase assay (LCAT R244A; [1]) | EC50 (LCAT R244A; [2]) [nM] | EC50 (LCAT R244A; [3]) [nM] | MUP assay EC50 (LCAT R244H; [1]) | MUP assay EC50 (LCAT R244A; [1]) | SMILES
4 | stabilize | – | stabilize | 1.8 ± 0.1 fold | 320 ± 30 | – | 1.9 ± 0.2 fold | 270 ± 40 | – | – | – | O=C1CC(O)(C(F)(F)F)c2c(C3CCN(c4cnc(C(F)(F)F)cn4)CC3)n[nH]c2N1 (stereo not drawn) [compound 2, 4-Hydroxy-4-(trifluoromethyl)−3-(1-(5-(trifluoromethyl)pyrazin-2-yl)piperidin-4-yl)−4,5-dihydro-1H-pyrazolo[3,4-b]pyridin-6(7H)-one]
5 | – | – | – | no effect | – | – | no effect | – | – | no effect | no effect | O=C1CC(O)(C(F)(F)F)c2c(ncn2C2CCNCC2)N1 (stereo not drawn) [compound 6, 7-Hydroxy-1-(piperidin-4-yl)−7-(trifluoromethyl)−6,7-dihydro-1H-imidazo[4,5-b]pyridin-5(4H)-one]
6 | – | – | – | 1.3 ± 0.06 fold | 7600 ± 1000 | – | 1.2 ± 0.1 fold | 6200 ± 800 | – | – | – | O=C1CC(O)(C(F)(F)F)c2c(C3CCN(c4cnc(C(F)(F)F)cn4)CC3)noc2N1 (stereo not drawn) [compound 9, 4-hydroxy-4-(trifluoromethyl)−3-(1-(5-(trifluoromethyl)pyrazin-2-yl)piperidin-4-yl)−4,5-dihydroisoxazolo[5,4-b]pyridin-6(7H)-one]
